Key:
[1] = clinical trials, preliminary data, cited from earlier work
[2] = biological target: programmed death receptor-1 (PD-1) (Homo sapiens, UniProt Q15116); details: cited from earlier work
[3] = system: solid tumors; details: Rutkowski et al. 2019; cited from earlier work
[4] = biological target: T1, human Adenosine A2a receptor (Homo sapiens, UniProt P29274); test: Adenosine receptor TR-FRET binding assay (CA200645 displacement), A2a; details: 100 nM CA200645, CHO cell membranes, 2 hours at room temperature
T1 construct: expressed in transfected cells; host or cells: CHO cell membranes

[5] = biological target: T2, human Adenosine A2b receptor (Homo sapiens, UniProt P29275); test: Adenosine receptor TR-FRET binding assay (CA200645 displacement), A2b; details: 30 nM CA200645, CHO cell membranes, 2 hours at room temperature
T2 construct: expressed in transfected cells; host or cells: CHO cell membranes
T2 sequence (P29275 1-332): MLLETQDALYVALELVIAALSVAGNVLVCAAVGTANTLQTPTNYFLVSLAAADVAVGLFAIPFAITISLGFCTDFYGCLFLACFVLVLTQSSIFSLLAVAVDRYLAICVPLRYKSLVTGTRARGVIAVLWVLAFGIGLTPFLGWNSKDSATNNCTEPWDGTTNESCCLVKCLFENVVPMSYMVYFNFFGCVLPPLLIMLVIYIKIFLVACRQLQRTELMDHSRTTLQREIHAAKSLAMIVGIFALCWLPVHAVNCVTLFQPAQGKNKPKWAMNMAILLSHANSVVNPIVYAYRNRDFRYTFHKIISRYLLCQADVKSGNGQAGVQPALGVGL

[6] = system: human PBMCs; test: CD3/CD28 stimulated IL-2 release NECA reversal assay in human PBMCs; assay type: cell-based; details: PBMC, CD3/CD28 antibody stimulated, 1 uM NECA, 24 hours, IL-2 in culture supernatant;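 note: dose-response as % inhibition where 100% equals no-NECA control wells with CD3/CD28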
In short: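 PBMCs from citrated donor blood, 50,000 cells/well on plate-bound CD3 antibody (1 ug/ml), with 1 ug/ml CD28 antibody, 1 uM NECA and antagonist at 0.003-10 μM final. After 24 h at 37° C, supernatant IL-2 was measured by MSD immunoassay.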

[7] = system: CD8+ T cells in human whole blood; test: Measurement of pCREB in CD8+ T cells in human whole blood; assay type: cell-based; details: T-cell, 1 h; heparinised human whole blood, rolipram, 3 μM NECA, 60 min, phospho-CREB in CD8+ T cells by FACS
In short: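 Heparinised human whole blood preincubated 20 min at 37 °C with serially diluted A2a antagonists plus rolipram, then stimulated 60 min with 3 μM NECA (final). After fixation and RBC lysis, permeabilized leukocytes stained for phospho-CREB and CD8; pCREB in CD8+ T cells read by flow cytometry.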

[8] = biological target: T3, human Adenosine A1 receptor (Homo sapiens, UniProt P30542); test: Adenosine receptor TR-FRET binding assay (CA200645 displacement), A1
T3 sequence (P30542 1-326): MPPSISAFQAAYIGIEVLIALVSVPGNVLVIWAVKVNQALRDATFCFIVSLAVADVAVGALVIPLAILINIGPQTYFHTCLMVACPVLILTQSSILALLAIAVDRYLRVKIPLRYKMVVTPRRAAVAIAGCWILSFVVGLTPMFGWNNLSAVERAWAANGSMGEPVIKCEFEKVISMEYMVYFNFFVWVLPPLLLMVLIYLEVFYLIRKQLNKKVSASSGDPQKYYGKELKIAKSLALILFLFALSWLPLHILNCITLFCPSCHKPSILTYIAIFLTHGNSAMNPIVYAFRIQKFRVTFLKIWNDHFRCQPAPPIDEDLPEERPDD
Procedure: All FRET binding experiments were conducted at room temperature in white 384-well plates, in assay binding buffer containing 1×LabMed (Cisbio, France), 100 μg/mL saponin, 1% DMSO and 0.02% pluronic acid. Binding of the fluorescently labelled Adenosine receptor antagonist XAC (CA200645, FRET acceptor) to terbium-labelled A1, A2a, A2b and A3 adenosine receptors (FRET donors) was detected by time-resolved FRET due to the close proximity of the donor and acceptor in a binding event. To investigate the ability of unlabelled test compounds to bind to Adenosine A1, A2a, A2b and A3 receptors, dose response curves were constructed that determined the ability of a range of concentrations to inhibit the binding of 30 nM CA200645 to the A2b receptor and 100 nM CA200645 to the A1, A2a, and A3 receptor.
Serial dilution (1:3 dilutions) of test compounds in neat DMSO and transfer of a 400 nL sample of test compound into the assay plate was carried out using the Mosquito (TTP Labtech, UK). The compound samples were incubated for 2 hours at room temperature with a fixed concentration of CA200645 defined for each receptor (see above) and CHO cell membranes containing the human Adenosine A1 (0.5 μg/well), A2a (0.3 μg/well), A2b (1 μg/well) or A3 (1 μg/well) receptor in 40 μL of assay buffer. Total and non-specific binding of CA200645 was determined in the absence and presence of 10 μM XAC, respectively. Following 2 hours incubation, the level of CA200645 binding was detected on a Pherastar FSX (BMG Labtech, Germany) using standard TR-FRET settings. The terbium donor was excited with three laser flashes at a wavelength of 337 nm, and donor and acceptor emission was detected at 620 nm and 665 nm wavelengths, respectively. FRET ratios were obtained by multiplying the acceptor/donor ratio value by 10,000. Specific binding was determined by subtracting the non-specific binding FRET ratio from the total binding FRET ratio. Compound IC50 curves were analysed using GraphPad Prism 7.0 (GraphPad, USA) and Ki affinity values were determined from the obtained IC50 values using the method of Cheng and Prusoff.

[9] = biological target: T4, human Adenosine A3 receptor (Homo sapiens, UniProt P0DMS8); test: Adenosine receptor TR-FRET binding assay (CA200645 displacement), A3
T4 sequence (P0DMS8 1-318): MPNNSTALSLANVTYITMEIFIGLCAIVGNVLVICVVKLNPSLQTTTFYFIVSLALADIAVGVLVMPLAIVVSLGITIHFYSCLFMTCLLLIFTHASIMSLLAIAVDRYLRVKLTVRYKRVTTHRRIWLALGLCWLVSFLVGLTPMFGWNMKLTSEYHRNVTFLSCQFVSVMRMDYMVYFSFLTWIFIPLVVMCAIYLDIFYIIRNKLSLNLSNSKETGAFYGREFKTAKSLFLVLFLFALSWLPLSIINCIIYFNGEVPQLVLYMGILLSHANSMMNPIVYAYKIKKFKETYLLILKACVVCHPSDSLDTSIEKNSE

T1 sequence (P29274 whole entry): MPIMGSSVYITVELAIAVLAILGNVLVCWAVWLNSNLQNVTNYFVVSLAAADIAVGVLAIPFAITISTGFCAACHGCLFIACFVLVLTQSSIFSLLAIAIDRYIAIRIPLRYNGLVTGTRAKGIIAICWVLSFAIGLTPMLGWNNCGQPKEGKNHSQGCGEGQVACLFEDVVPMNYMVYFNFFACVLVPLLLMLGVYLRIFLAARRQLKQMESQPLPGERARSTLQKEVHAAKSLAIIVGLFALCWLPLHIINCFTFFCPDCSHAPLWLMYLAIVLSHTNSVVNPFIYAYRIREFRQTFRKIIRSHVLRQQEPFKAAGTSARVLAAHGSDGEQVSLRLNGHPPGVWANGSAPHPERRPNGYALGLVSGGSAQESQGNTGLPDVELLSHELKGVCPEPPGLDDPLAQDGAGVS
Chain of programmed death receptor-1 (PD-1) (Q15116 25-288): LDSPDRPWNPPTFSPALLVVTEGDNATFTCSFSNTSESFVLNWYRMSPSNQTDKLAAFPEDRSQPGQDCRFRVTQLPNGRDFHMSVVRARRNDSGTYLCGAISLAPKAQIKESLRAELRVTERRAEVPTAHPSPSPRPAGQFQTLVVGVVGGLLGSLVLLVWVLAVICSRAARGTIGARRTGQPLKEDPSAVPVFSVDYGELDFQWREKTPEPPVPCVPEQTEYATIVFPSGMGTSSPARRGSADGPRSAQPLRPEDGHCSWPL

Ki [4] [nM]	Ki [5] [nM]	IC50 [7] [nM]	Ki [8] [nM]	Ki [9] [nM]	Molecule	tolerability ([1]; monotherapy and combination with atezolizumab)	CD8+ T infiltration into tumour tissue ([1]; early indications)	tumour size ([1]; early indications)	binding to PD-1 [2]	activity in solid tumors [3]	IC50 [6] [nM]
					Cc1ccc(-c2nc(N)nc3c2nnn3Cc2cccc(CO[C@H]3CCOC3)n2)o1 [CPI-444]	well tolerated	enhancing CD8+ T infiltration into tumour tissue	reducing tumour size			
					Cetrelimab: a fully human immunoglobulin (Ig) G4 kappa monoclonal antibody that binds to programmed death receptor-1 (PD-1) with high affinity and specificity				high affinity and specificity	activity in solid tumors	
0.1	3	1570	15	> 1000	Cc1cc(-c2c(-c3cccc(C#N)c3)nn3ccc(NC4CCNCC4)nc23)cc(Cl)n1 [Example 4, 3-[3-(2-Chloro-6-methyl-4-pyridyl)-5-(4-piperidylamino)pyrazolo[1,5-a]pyrimidin-2-yl]benzonitrile]						8
2.9	21	520	5	56	Cc1cc(-c2c(-c3cccc(C#N)c3)nn3ccc(C(=O)NCC(C)(C)O)nc23)ccn1 [Example 12.2, 2-(3-Cyanophenyl)-N-(2-hydroxy-2-methyl-propyl)-3-(2-methyl-4-pyridyl)pyrazolo[1,5-a]pyrimidine-5-carboxamide]						22
1.8	14	120	47	> 1000	Cc1cc(-c2c(-c3cccc(C#N)c3)nn3ccc(NC(N)=O)nc23)cc(C)n1 [Example 30.3, [2-(3-Cyanophenyl)-3-(2,6-dimethyl-4-pyridyl)pyrazolo[1,5-a]pyrimidin-5-yl]urea]						50

Reference: US20230203041A1, “ANTAGONISTS OF THE ADENOSINE A2A RECEPTOR” (AdoRx Therapeutics Limited, priority 2020, published 2023)
